Measured values: patent US20120252721A1 (priority 2011, published 2012)

Assays:
HCV genotype 2a = test: Genotype 2a assay (NS5A-intergenotypic luciferase replicon / genotype 2a infectious virus assay); type: cell-based; conditions: Hepatitis C virus, read-out: EC50 2a
Text: The nucleotide sequences of the NS5A region of genotype 2a (GenBank Accession # AB047639), genotype 3a (GenBank Accession #D17763), and genotype 4a (GenBank Accession# DQ418788) were synthesized by an outside vendor. The NS5A region of each of these genotypes included the first 11 amino acids of the protease recognition sequence of genotype 1b, as well as the last 10 amino acids of genotype 1b. The NS5A gene cassettes were excised with site specific restriction endonucleases and ligated into a ZS11-luciferase genotype 1b backbone (backbone contains the genotype 1b NS3 protease, NS4a, NS4b, and NS5b coding regions) with similarly cut restriction enzyme sites. Thus, the newly constructed plasmid contains a genotype 2a-, 3a- or 4a-specific NS5A gene within the 1b-replicon.
These new intergenotypic plasmids were used to establish stable cell lines. RNA was generated from the NS5A intergenotypic plasmids and used in conjunction with a lipofectin reagent to transfect a cured Huh7 cell line. Transfected cells were selected for with G418. After selection has occurred the stable cell lines were propagated, tested for luciferase activity, and RT-PCR with genotype specific primers (either 1a, 2a, 3a, or 4a). Stable cell lines containing the intergenotypic replicon were then fully sequenced and analyzed for proper expression of NS3, NS5A and NS5B proteins.
Drug titration analysis was performed using the luciferase replicon assay described herein.
The genotype 2a infectious virus assay measures the ability of a test compound to inhibit HCV replication in cell culture after 5 days of treatment at the time of HCV genotype 2a virus infection of a permissive human hepatoma cell line (HPC cells). The inhibition of HCV replication was measured by quantification of HCV core protein expression by an enzyme-linked immunosorbent assay (ELISA). Briefly, HPC cells were grown in DMEM containing glucose, L-glutamine and sodium pyruvate, 10% FBS, 100 IU/mL penicillin, 100 μg/mL streptomycin, 2 mM GlutaMAX, and non-essential amino acids. GlutaMAX was obtained from Invitrogen, Corp.; all other media reagents were obtained from Mediatech, Inc. For dose-response testing, ninety-six-well plates were seeded with HPC cells at a density of 2.5×10^3 cells/well in a volume of 50 μL, and incubated at 37° C./5% CO2. Three hours after plating, 50 μL of ten 5-fold serial dilutions of compound and 100 μL of genotype 2a virus were added, and cell cultures were incubated at 37° C./5% CO2. In all cases, mock infected HPC cells served as negative control. At 16 hours post treatment and infection, the virus inoculum was removed by aspiration. The cultures were treated at the same final concentrations of drug diluted in media and incubated for 4 additional days at 37° C./5% CO2. Subsequently, the core ELISA was performed as follows. The plates were fixed for 90 seconds with acetone/methanol (1:1, v/v), washed three times with KPL wash solution (KPL, Inc.), blocked for 1 hr at room temperature with TNE buffer containing 10% FBS and then incubated for 2 hr at 37° C. with the anti-HCV core mouse monoclonal antibody (Thermo Scientific) diluted in the same buffer. After washing three times with KPL wash solution, the cells were incubated for 1 hr at 37° C. with an anti-mouse immunoglobulin G-peroxidase conjugate in TNE/10% FBS. After washing as described above, the reaction was developed with O-phenylenediamine (Invitrogen). The reaction was stopped after 30 min with 2 NH2SO4, and absorbance was read at 490 nm in a Victor^3V 1420 multilabel counter (Perkin Elmer) and EC50 concentrations were determined using Microsoft Excel and XLfit 4.1 software.
The HCV luciferase replicon assay measures the ability of a test compound to inhibit HCV replication in cell culture after 3 days of treatment in a human hepatoma cell line (Huh-7) bearing an HCV replicon containing a luciferase-neomycin phosphotransferase fusion gene. […]

[1] = test system: HCV genotype 1b replicon, NS5B C316Y; test: Luciferase replicon transient transfection assay, genotype 1b NS5B C316Y; type: cell-based, hepatitis C virus
Method: (§1) The luciferase replicon transient transfection assay measures the ability of a test compound to inhibit the replication of a transiently-transfected HCV luciferase-bearing wild-type or mutant replicon in cured human hepatoma cells (Huh7.5). The inhibition of HCV replication was measured by quantification of luciferase protein expression. This assay has been validated using a panel of genotype 1a and 1b replicons bearing mutations known to be associated with resistance to BMS-790052. Briefly, subconfluent Huh7.5 cells were electroporated with 10 μg of wild-type or mutant luciferase-bearing HCV replicon RNA. The cells were then seeded in 96-well opaque white plates at 3×10^4 cells/well in 150 μL/well and incubated for 4 hrs at 37° C./5% CO2. […] The plates were agitated on a rotating platform at room temperature for 3 min and read in a Victor^3V microplate reader (Perkin-Elmer) using a 700 nm cut-off filter with a 1 sec read time. EC50 values were calculated from dose response curves from the resulting best-fit equations determined by Microsoft Excel and XLfit 4.1 software.
(§2) To determine the replication capacity of each mutant relative to the wild-type parental replicon, transfected cells were plated on two plates and were not treated with compound. Luciferase activity was measured at time points of 4 hrs and 4 days after plating for each replicon. […]

[2] = test system: HCV genotype 1b replicon, NS5B M423T; test: Luciferase replicon transient transfection assay, genotype 1b NS5B M423T; type: cell-based, hepatitis C virus
Method: as §1, §2

SMILES | EC50 (HCV genotype 2a) [pM] | EC50 ([1]; Hepatitis C virus, genotype 1b, NS5B mutation C316Y (confers resistance to Benzofuran/Benzothiadiazine)) [pM] | Ratio ([1]; {}) | EC50 ([2]; Hepatitis C virus, genotype 1b, NS5B mutation M423T (confers resistance to Thiophene)) [pM] | Ratio ([2]; {})
COC(=O)N[C@H](C(=O)N1CCC[C@H]1c1ncc(-c2ccc(-c3csc4c(-c5cnc([C@@H]6CCCN6C(=O)[C@@H](NC(=O)OC)C(C)C)[nH]5)csc34)cc2)[nH]1)C(C)C [Compound A15, [(S)-1-((S)-2-{4-[4-(6-{2-[(S)-1-((S)-2-methoxycarbonylamino-3-methyl-butyryl)-pyrrolidin-2-yl]-3H-imidazol-4-yl}-thieno[3,2-b]thiophen-3-yl)-phenyl]-1H-imidazol-2-yl}-pyrrolidine-1-carbonyl)-2-methyl-propyl]-carbamic acid methyl ester] | < 100 |  |  |  | 
COC(=O)N[C@H](C(=O)N1CCC[C@H]1c1nc2cc(-c3csc4c(-c5ccc(-c6cnc([C@@H]7CCCN7C(=O)[C@H](NC(=O)OC)c7ccccc7)[nH]6)cc5)csc34)ccc2[nH]1)C(C)C [Compound A169, [(S)-1-((S)-2-{6-[6-(4-{(S)-2-[1-((R)-2-methoxycarbonylamino-2-phenyl-acetyl)-pyrrolidin-2-yl]-3H-imidazol-4-yl}-phenyl)-thieno[3,2-b]thiophen-3-yl]-1H-benzoimidazol-2-yl}-pyrrolidine-1-carbonyl)-2-methyl-propyl]-carbamic acid methyl ester] |  | 2.3 | 1.37 | 2 | 1.22
